The target in one assay is T1, human LSD1(171-852) (Homo sapiens, UniProt O60341).
T1 construct: to give hLSD1(171-852) purified product; made in house; host or cells: Escherichia coli C43(DE3) pLysS
In words: Measurement of LSD1 inhibitory activity (time-resolved fluorescence, biotin-histone H3 mono methylated K4 peptide). It counts as biochemical. The settings on record: read-out: LSD1 IC50 value.

The next assay addresses T2, MAO-A (Homo sapiens, UniProt P21397).
T2 construct: purchased Sigma-Aldrich Co. LLC
T2 sequence (P21397 1-527): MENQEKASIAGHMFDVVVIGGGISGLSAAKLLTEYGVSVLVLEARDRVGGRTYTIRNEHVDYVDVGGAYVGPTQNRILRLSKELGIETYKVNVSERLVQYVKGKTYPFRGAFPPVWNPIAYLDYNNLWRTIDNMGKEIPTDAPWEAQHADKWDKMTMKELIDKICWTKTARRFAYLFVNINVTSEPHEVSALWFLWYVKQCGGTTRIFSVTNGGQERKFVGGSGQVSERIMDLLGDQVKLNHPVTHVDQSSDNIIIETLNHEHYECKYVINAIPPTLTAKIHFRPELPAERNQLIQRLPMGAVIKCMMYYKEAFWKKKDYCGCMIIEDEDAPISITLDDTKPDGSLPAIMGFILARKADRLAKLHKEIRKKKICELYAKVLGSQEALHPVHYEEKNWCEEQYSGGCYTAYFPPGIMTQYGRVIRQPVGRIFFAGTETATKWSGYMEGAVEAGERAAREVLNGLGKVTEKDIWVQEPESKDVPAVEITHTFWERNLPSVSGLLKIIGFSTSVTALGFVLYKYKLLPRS
Kind of assay: Measurement of MAO-A inhibitory activity (MAO-Glo Assay). Format: biochemical. The method, boiled down:
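MAO-A (400 ng) was pre-incubated with compound 10 min at room temperature in 100 mM HEPES pH 7.5, 5% glycerol, then MAO substrate (160 μM stock) added for 60 min. Luciferin detection reagent, 20 min, luminescence; % inhibition against no-compound control minus no-enzyme blank.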

Another assay concerns the target T3, MAO-B (Homo sapiens, UniProt P27338).
T3 construct: purchased Sigma-Aldrich Co. LLC
T3 sequence (P27338 1-520): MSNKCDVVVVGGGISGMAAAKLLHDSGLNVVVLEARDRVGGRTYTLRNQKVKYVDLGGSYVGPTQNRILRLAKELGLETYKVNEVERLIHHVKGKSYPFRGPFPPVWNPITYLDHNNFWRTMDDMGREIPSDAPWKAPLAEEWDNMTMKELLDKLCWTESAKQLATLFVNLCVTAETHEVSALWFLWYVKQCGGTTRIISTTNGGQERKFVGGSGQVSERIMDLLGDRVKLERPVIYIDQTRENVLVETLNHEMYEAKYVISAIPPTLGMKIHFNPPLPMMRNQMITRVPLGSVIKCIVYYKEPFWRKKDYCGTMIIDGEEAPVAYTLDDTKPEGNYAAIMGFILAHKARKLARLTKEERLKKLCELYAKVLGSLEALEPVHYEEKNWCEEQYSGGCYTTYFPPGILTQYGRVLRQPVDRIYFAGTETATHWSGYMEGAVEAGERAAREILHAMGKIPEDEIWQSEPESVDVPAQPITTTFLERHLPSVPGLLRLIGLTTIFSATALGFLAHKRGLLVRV
In words: Measurement of MAO-B inhibitory activity (MAO-Glo Assay). It counts as biochemical. The method in brief:
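Percent inhibition was calculated from luciferin-based luminescence, corrected with a blank lacking enzyme and a control lacking compound. The reaction ran 60 min at room temperature after adding MAO substrate (16 µM as added). This followed a 10 min compound–enzyme preincubation in HEPES pH 7.5 buffer.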

The test system of assay [1] is HEL92.1.7 acute myeloid leukemia cells. Kind of assay: Tumor growth suppressive effect test using HEL92.1.7 acute myeloid leukemia cell. Format: in vivo, SCID mice. The settings on record: change rate in tumor volume, vehicle-treated group = 100%, 30 mg/kg orally once per day. As for the experimental part: Tumor Growth Suppressive Effect Test Using HEL92.1.7 Acute Myeloid Leukemia Cell
6-Week-old SCID mice were subcutaneously transplanted with 5×10^6 cells/100 μl of HEL92.1.7 acute myeloid leukemia cells, and the mice were grouped according to the body weight and tumor volume after 15 to 17 days. Vehicle (0.5% methylcellulose) or compound A, compound B or compound C was administered orally to mice (5 mice per group). The administration was once per day and performed continuously during the dosing period. Setting the change in tumor volume of the vehicle-treated group as 100%, the change rate in tumor volume of the compound-treated group (T/C %) was calculated. The tumor volume was determined by measuring the long diameter m and short diameter of the tumor with a vernier caliper, and calculating by the following calculation formula: (long diameter)×(short diameter)×(short diameter)/2.

The record followed here is patent US9682925B2, “Cyclopropaneamine compound” (TAKEDA PHARMACEUTICAL COMPANY LIMITED, priority 2011, dated 2017).

Where a name gives a salt, the structure may show the parent alone.

In general, IC50 refers to the midpoint of a concentration-inhibition curve. `CN1CCC(N[C@@H]2C[C@H]2c2ccc(NC(=O)c3cccc(C(F)(F)F)c3)cc2)CC1` (relative stereo) [Example 76, N-(4-{trans-2-[(1-methylpiperidin-4-yl)amino]cyclopropyl}phenyl)-3-(trifluoromethyl)benzamide dihydrochloride]: the results for the IC50 at human LSD1(171-852), against MAO-A and on MAO-B were under 0.1 µM, over 10 µM and over 10 µM, respectively. The “T/C (%)” value in assay [1] (dosing period 7 days) is given as −8.08%.

Take `O=C(Nc1ccc([C@@H]2C[C@H]2NC2CCC(F)(F)CC2)cc1)c1cccc(C(F)(F)F)c1` (relative stereo) [Example 154, N-(4-{trans-2-[(4,4-difluorocyclohexyl)amino]cyclopropyl}phenyl)-3-(trifluoromethyl)benzamide hydrochloride]: the IC50 at human LSD1(171-852) is under 0.1 µM; against MAO-A, over 10 µM; at MAO-B, over 10 µM.

Consider `CN1CCC(CN[C@@H]2C[C@H]2c2ccc(NC(=O)c3cccc(C(F)(F)F)c3)cc2)CC1` (relative stereo) [Example 155, N-{4-[trans-2-{[(1-methylpiperidin-4-yl)methyl]amino}cyclopropyl]phenyl}-3-(trifluoromethyl)benzamide dihydrochloride], for which the IC50 on human LSD1(171-852) was under 0.1 µM; against MAO-A, over 10 µM; at MAO-B it was over 10 µM.

Regarding `Cc1cc(C(=O)Nc2ccc([C@@H]3C[C@H]3NCC3CC3)cc2)n(C)n1` (relative stereo) [Example 156, N-(4-{trans-2-[(cyclopropylmethyl)amino]cyclopropyl}phenyl)-1,3-dimethyl-1H-pyrazole-5-carboxamide dihydrochloride], the IC50 is under 0.1 µM on human LSD1(171-852), over 10 µM at MAO-A and over 10 µM against MAO-B.

With `Cc1cc(C(=O)Nc2ccc([C@@H]3C[C@H]3NCC3CC3)cc2)nn1C` (relative stereo) [Example 157, N-(4-{trans-2-[(cyclopropylmethyl)amino]cyclopropyl}phenyl)-1,5-dimethyl-1H-pyrazole-3-carboxamide dihydrochloride], the IC50 at human LSD1(171-852) is 0.1 µM; on MAO-A, over 10 µM; on MAO-B, over 10 µM.

Take `Cn1cc(C(=O)Nc2ccc([C@@H]3C[C@H]3NCC3CC3)cc2)c(C(F)(F)F)n1` (relative stereo) [Example 158, N-(4-{trans-2-[(cyclopropylmethyl)amino]cyclopropyl}phenyl)-1-methyl-3-(trifluoromethyl)-1H-pyrazole-4-carboxamide hydrochloride]: the IC50 was under 0.1 µM at human LSD1(171-852), over 10 µM against MAO-A and over 10 µM against MAO-B.

In the case of `Cn1ncc(C(=O)Nc2ccc([C@@H]3C[C@H]3NCC3CC3)cc2)c1C(F)(F)F` (relative stereo) [Example 159, N-(4-{trans-2-[(cyclopropylmethyl)amino]cyclopropyl}phenyl)-1-methyl-5-(trifluoromethyl)-1H-pyrazole-4-carboxamide hydrochloride], the IC50 at human LSD1(171-852) is under 0.1 µM; on MAO-A it was over 10 µM; on MAO-B, over 10 µM.

In the case of `O=C(Nc1ccc([C@@H]2C[C@H]2NCc2cn3ccsc3n2)cc1)c1cccc(C(F)(F)F)c1` (relative stereo) [Example 160, N-(4-{trans-2-[(imidazo[2,1-b][1,3]thiazol-6-ylmethyl)amino]cyclopropyl}phenyl)-3-(trifluoromethyl)benzamide dihydrochloride], the IC50 on human LSD1(171-852) was under 0.1 µM; against MAO-A, 5.1 µM; against MAO-B it was over 10 µM.

For the compound `O=C(Nc1ccc([C@@H]2C[C@H]2NCc2cc3cccnc3s2)cc1)c1cccc(C(F)(F)F)c1` (relative stereo) [Example 161, N-(4-{trans-2-[(thieno[2,3-b]pyridin-2-ylmethyl)amino]cyclopropyl}phenyl)-3-(trifluoromethyl)benzamide hydrochloride], the results for the 50% inhibitory concentration (IC50) at human LSD1(171-852), against MAO-A and against MAO-B were under 0.1 µM, 4.1 µM and over 10 µM, respectively.

On to `O=C(Nc1ccc([C@@H]2C[C@H]2NCc2ccc3cccnc3n2)cc1)c1cccc(C(F)(F)F)c1` (relative stereo) [Example 162, N-(4-{trans-2-[(1,8-naphthyridin-2-ylmethyl)amino]cyclopropyl}phenyl)-3-(trifluoromethyl)benzamide hydrochloride], for which the IC50 on human LSD1(171-852) was under 0.1 µM; against MAO-A it was 2.1 µM; against MAO-B, over 10 µM.

With `CC(C)(C)n1cc(C(=O)Nc2ccc([C@@H]3C[C@H]3NCC3CC3)cc2)cn1` (relative stereo) [Example 164, 1-tert-butyl-N-(4-{trans-2-[(cyclopropylmethyl)amino]cyclopropyl}phenyl)-1H-pyrazole-4-carboxamide hydrochloride], the figures for the half-maximal inhibitory concentration (IC50) at human LSD1(171-852), against MAO-A and on MAO-B were 0.2 µM, over 10 µM and over 10 µM, respectively.

In the case of `O=C(Nc1ccc([C@@H]2C[C@H]2NCC2CC2)cc1)c1ccc(-c2ccccc2)cc1` (single isomer, unassigned) [Example 59, N-(4-{trans-2-[(cyclopropylmethyl)amino]cyclopropyl}phenyl)biphenyl-4-carboxamide hydrochloride], the IC50 against MAO-A was 7.1 µM; against MAO-B it was over 10 µM. In addition, the “T/C (%)” value in assay [1] (dosing period 14 days) worked out at 12.54%.

With `CN1CCC(N[C@H]2C[C@@H]2c2ccc(NC(=O)c3cccc(C(F)(F)F)c3)cc2)CC1` (single isomer, unassigned) [Example 152, N-(4-{(1R,2S) or (1S,2R)-2-[(1-methylpiperidin-4-yl)amino]cyclopropyl}phenyl)-3-(trifluoromethyl)benzamide dihydrochloride], the half-maximal inhibitory concentration (IC50) on human LSD1(171-852) is under 0.1 µM; on MAO-A it was over 10 µM; against MAO-B, over 10 µM.

As to `CN1CCC(N[C@@H]2C[C@H]2c2ccc(NC(=O)c3cccc(C(F)(F)F)c3)cc2)CC1` (single isomer, unassigned) [Example 153, N-(4-{(1S,2R) or (1R,2S)-2-[(1-methylpiperidin-4-yl)amino]cyclopropyl}phenyl)-3-(trifluoromethyl)benzamide dihydrochloride], the IC50 on human LSD1(171-852) was under 0.1 µM; at MAO-A, over 10 µM; at MAO-B, over 10 µM.

In the case of `O=C(N[C@@H](Cc1ccccc1)C(=O)Nc1ccc(C2CC2NCc2ccccc2)cc1)OCc1ccccc1` (stereo in doubt) [Example 57, N-{4-[trans-2-(benzylamino)cyclopropyl]phenyl}-Nα-[(benzyloxy)carbonyl]-L-phenylalaninamide hydrochloride], the IC50 on human LSD1(171-852) was 0.48 µM; against MAO-A, over 10 µM; on MAO-B, over 10 µM.

For `O=C(N[C@H](Cc1ccccc1)C(=O)Nc1ccc(C2CC2NCc2ccccc2)cc1)OCc1ccccc1` (stereo in doubt) [Example 58, N-{4-[trans-2-(benzylamino)cyclopropyl]phenyl}-Nα-[(benzyloxy)carbonyl]-D-phenylalaninamide hydrochloride], the values for the IC50 on human LSD1(171-852), against MAO-A and against MAO-B were 0.41 µM, over 10 µM and over 10 µM, respectively.

Consider `Cc1cc(C2CC2NCC2CC2)ccc1NC(=O)c1ccccc1` (stereo not drawn) [Example 81, N-(4-{trans-2-[(cyclopropylmethyl)amino]cyclopropyl}-2-methylphenyl)benzamide hydrochloride], for which the half-maximal inhibitory concentration (IC50) at human LSD1(171-852) is under 0.1 µM; on MAO-A it was over 10 µM; against MAO-B it was over 10 µM.
